Test results from patent publication US10597388B2, “Pyridazinone herbicides” (FMC CORPORATION, priority 2014, dated 2020).

Tests used:
Assay in all cases: Test D controlled growth environment herbicide test, pre- and postemergence
Type in all cases: in vivo
[1] = test system: wheat, spring (spring wheat, Triticum aestivum)
Excerpt: (§1) Seeds of plant species selected from bluegrass (annual bluegrass, Poa annua), blackgrass (Alopecurus myosuroides), Canada thistle (Cirsium arvense), canarygrass (Phalaris minor), chickweed (common chickweed, Stellaria media), geranium, cutleaf (cutleaf geranium, Geranium dissectum), galium (catchweed bedstraw, Galium aparine), bromegrass, downy (downy bromegrass, Bromus tectorum), field poppy (Papaver rhoeas), field violet (Viola arvensis), foxtail, green (green foxtail, Setaria viridis), deadnettle (henbit deadnettle, Lamium amplexicaule), ryegrass, Italian (Italian ryegrass, Lolium multiflorum), kochia (Kochia scoparia), lambsquarters (Chenopodium album), oilseed rape (Brassica napus), pigweed (Amaranthus retroflexus), chamomile (scentless chamomile, Matricaria inodora), Russian thistle (Salsola kali), speedwell (bird's-eye speedwell, Veronica persica), barley, spring (spring barley, Hordeum vulgare), wheat, spring (spring wheat, Triticum aestivum), buckwheat, wild (wild buckwheat, Polygonum convolvulus), mustard, wild (wild mustard, Sinapis arvensis), oat, wild (wild oat, Avena fatua), radish, wild (wild radish, Raphanus raphanistrum), windgrass (Apera spica-venti), barley, winter (winter barley, Hordeum vulgare), and wheat, winter (winter wheat, Triticum aestivum) were planted into a silt loam soil and treated preemergence with test chemicals formulated in a non-phytotoxic solvent mixture which included a surfactant.
(§2) At the same time, these species were planted in pots containing Redi-Earth® planting medium (Scotts Company, 14111 Scottslawn Road, Marysville, Ohio 43041) comprising spaghnum peat moss, vermiculite, wetting agent and starter nutrients and treated with postemergence applications of the test chemicals formulated in the same manner. Plants ranged in height from 2 to 18 cm (1- to 4-leaf stage). Treated plants and controls were maintained in a controlled growth environment for 14 to 21 d after which time all species were compared to controls and visually evaluated. Plant response ratings, summarized in Table D, are based on a scale of 0 to 100 where 0 is no effect and 100 is complete control. A dash (-) response means no test result.

[2] = test system: wheat, winter (winter wheat, Triticum aestivum)
Excerpt: as §1, §2

[3] = test system: Russian thistle (Salsola kali)
Excerpt: as §1, §2

[4] = test system: oilseed rape (Brassica napus)
Excerpt: as §1, §2

[5] = test system: mustard, wild (wild mustard, Sinapis arvensis)
Excerpt: as §1, §2

[6] = test system: ryegrass, Italian (Italian ryegrass, Lolium multiflorum)
Excerpt: as §1, §2

[7] = test system: blackgrass (Alopecurus myosuroides)
Excerpt: as §1, §2

[8] = test system: oat, wild (wild oat, Avena fatua)
Excerpt: as §1, §2

[9] = test system: foxtail, green (green foxtail, Setaria viridis)
Excerpt: as §1, §2

[10] = test system: bromegrass, downy (downy bromegrass, Bromus tectorum)
Excerpt: as §1, §2

[11] = test system: deadnettle (henbit deadnettle, Lamium amplexicaule)
Excerpt: as §1, §2

[12] = test system: chickweed (common chickweed, Stellaria media)
Excerpt: as §1, §2

[13] = test system: speedwell (bird's-eye speedwell, Veronica persica)
Excerpt: as §1, §2

[14] = Postemergence, 31 g ai/ha, scale 0 to 100 (0 no effect, 100 complete control)
[15] = Postemergence, 125 g ai/ha, visual rating on scale 0 (no effect) to 100 (complete control), 14 to 21 d
[16] = Postemergence, 250 g ai/ha, scale 0 to 100 (0 no effect, 100 complete control)
[17] = Preemergence, 62 g ai/ha, scale 0 to 100 (0 no effect, 100 complete control)
[18] = Preemergence, 125 g ai/ha, scale 0 to 100 (0 no effect, 100 complete control)
[19] = Preemergence, 250 g ai/ha, scale 0 to 100, 0 no effect, 100 complete control
[20] = postemergence, 62 g ai/ha, scale 0 to 100, 0 no effect, 100 complete control

Cc1nn(C)c(=O)c(-c2ccc(Br)c3ccccc23)c1O [Compound 75]
15: Plant response rating, Wheat, Spring [1, 16] | Plant response rating, Wheat, Winter [2, 19] | Blackgrass plant response rating [7, 14] | Plant response rating (scale of 0 to 100), Blackgrass ([7]; Preemergence, 31 g ai/ha) | Plant response rating (scale of 0 to 100), Foxtail, Green ([9]; Preemergence, 31 g ai/ha) | Plant response rating, Bromegrass, Downy [10, 15]
45: Plant response rating, Wheat, Spring [1, 19]
95: Plant response rating, Oilseed Rape [4, 15] | Plant response rating, Oilseed Rape [4, 20] | Plant response rating, Mustard, Wild [5, 19] | Plant response rating, Ryegrass, Italian [6, 15] | Plant response rating (scale of 0 to 100), Ryegrass, Italian ([6]; Preemergence, 31 g ai/ha) | Plant response rating, Ryegrass, Italian [6, 20] | Plant response rating, Deadnettle [11, 15] | Plant response rating, Chickweed [12, 18] | Plant response rating (scale of 0 to 100), Speedwell ([13]; Preemergence, 31 g ai/ha)
55: Plant response rating (scale of 0 to 100), Mustard, Wild ([5]; Preemergence, 31 g ai/ha) | Plant response rating, Blackgrass [7, 19] | Plant response rating (scale of 0 to 100), Oat, Wild ([8]; Preemergence, 31 g ai/ha) | Plant response rating, Foxtail, Green [9, 15] | Plant response rating, Foxtail, Green [9, 18] | Plant response rating, Deadnettle [11, 17]
20: Plant response rating, Wheat, Winter [2, 18] | Plant response rating, Blackgrass [7, 20]
85: Plant response rating, Russian Thistle [3, 15] | Plant response rating, Russian Thistle [3, 16] | Plant response rating, Oat, Wild [8, 15] | Plant response rating, Oat, Wild [8, 19]
35: Plant response rating, Wheat, Spring [1, 18] | Plant response rating, Russian Thistle [3, 19] | Plant response rating, Mustard, Wild [5, 17] | Plant response rating, Foxtail, Green [9, 17]
65: Plant response rating, Blackgrass [7, 15] | Plant response rating, Oat, Wild [8, 17]
80: Russian Thistle plant response rating [3, 14] | Plant response rating, Russian Thistle [3, 20] | Plant response rating, Oat, Wild [8, 16] | Plant response rating, Oat, Wild [8, 18] | Speedwell plant response rating [13, 14]
70: Oilseed Rape plant response rating [4, 14] | Plant response rating, Blackgrass [7, 16] | Plant response rating, Oat, Wild [8, 20]
30: Plant response rating, Blackgrass [7, 17] | Plant response rating, Bromegrass, Downy [10, 16] | Plant response rating (scale of 0 to 100), Deadnettle ([11]; Preemergence, 31 g ai/ha)
100: Plant response rating, Oilseed Rape [4, 16] | Plant response rating, Oilseed Rape [4, 18] | Plant response rating, Oilseed Rape [4, 19] | Mustard, Wild plant response rating [5, 14] | Plant response rating, Mustard, Wild [5, 15] | Plant response rating, Mustard, Wild [5, 16] | Plant response rating, Mustard, Wild [5, 18] | Plant response rating, Mustard, Wild [5, 20] | Plant response rating, Ryegrass, Italian [6, 17] | Plant response rating, Ryegrass, Italian [6, 18] | Plant response rating, Foxtail, Green [9, 19] | Plant response rating, Deadnettle [11, 16] | Plant response rating, Deadnettle [11, 19] | Chickweed plant response rating [12, 14] | Plant response rating, Chickweed [12, 15] | Plant response rating, Chickweed [12, 16] | Plant response rating, Chickweed [12, 17] | Plant response rating, Chickweed [12, 19] | Plant response rating, Chickweed [12, 20] | Plant response rating, Speedwell [13, 15] | Plant response rating, Speedwell [13, 16] | Plant response rating, Speedwell [13, 17] | Plant response rating, Speedwell [13, 18] | Plant response rating, Speedwell [13, 19] | Plant response rating, Speedwell [13, 20]
50: Plant response rating (scale of 0 to 100), Oilseed Rape ([4]; Preemergence, 31 g ai/ha) | Oat, Wild plant response rating [8, 14]
5: Plant response rating, Wheat, Spring [1, 15]
25: Plant response rating, Wheat, Spring [1, 17] | Plant response rating, Russian Thistle [3, 18] | Plant response rating, Foxtail, Green [9, 20] | Plant response rating, Bromegrass, Downy [10, 19]
0: Wheat, Spring plant response rating [1, 14] | Plant response rating (scale of 0 to 100), Wheat, Spring ([1]; Preemergence, 31 g ai/ha) | Plant response rating, Wheat, Spring [1, 20] | Wheat, Winter plant response rating [2, 14] | Plant response rating, Wheat, Winter [2, 15] | Plant response rating, Wheat, Winter [2, 16] | Plant response rating (scale of 0 to 100), Wheat, Winter ([2]; Preemergence, 31 g ai/ha) | Plant response rating, Wheat, Winter [2, 17] | Plant response rating, Wheat, Winter [2, 20] | Plant response rating (scale of 0 to 100), Russian Thistle ([3]; Preemergence, 31 g ai/ha) | Plant response rating, Russian Thistle [3, 17] | Plant response rating, Ryegrass, Italian [6, 19] | Foxtail, Green plant response rating [9, 14] | Bromegrass, Downy plant response rating [10, 14] | Plant response rating (scale of 0 to 100), Bromegrass, Downy ([10]; Preemergence, 31 g ai/ha) | Plant response rating, Bromegrass, Downy [10, 17] | Plant response rating, Bromegrass, Downy [10, 20]
75: Plant response rating, Oilseed Rape [4, 17] | Deadnettle plant response rating [11, 14]
90: Ryegrass, Italian plant response rating [6, 14] | Plant response rating, Deadnettle [11, 18] | Plant response rating, Deadnettle [11, 20] | Plant response rating (scale of 0 to 100), Chickweed ([12]; Preemergence, 31 g ai/ha)
40: Plant response rating, Blackgrass [7, 18]
98: Plant response rating, Ryegrass, Italian [6, 16]
60: Plant response rating, Foxtail, Green [9, 16]
10: Plant response rating, Bromegrass, Downy [10, 18]
